The supplement of paper PMC10307832

Legend:
Assay in all cases: relative viability (nuclei count vs DMSO), 5 days (fraction); higher = more cells survive
NCI-H23 = test system: NCI-H23
In short: (§1)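 Relative viability was taken as the ratio of nuclei in treated wells to nuclei in vehicle wells. Lung cancer cell lines in 1536-well plates received compounds by pin tool one day after seeding, either one drug alone or a fixed anchor-drug dose plus five library-drug doses (not always all listed) in √10 steps. Nuclei were counted on 4× images after 5 days of treatment, and values are medians of duplicate plates.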

NCI-H727 = test system: NCI-H727
In short: as §1

NCI-H1993 = test system: NCI-H1993
In short: as §1

NCI-H2126 = test system: NCI-H2126
In short: as §1

NCI-H647 = test system: NCI-H647
In short: as §1

NCI-H2023 = test system: NCI-H2023
In short: as §1

EMC-BAC-2 = test system: EMC-BAC-2
In short: as §1

NCI-H650 = test system: NCI-H650
In short: as §1

HARA = test system: HARA
In short: as §1

NCI-H2347 = test system: NCI-H2347
In short: as §1

HCC-44 = test system: HCC-44
In short: as §1

LCLC-103H = test system: LCLC-103H
In short: as §1

NCI-H522 = test system: NCI-H522
In short: as §1

LOU-NH91 = test system: LOU-NH91
In short: as §1

NCI-H838 = test system: NCI-H838
In short: as §1

NCI-H1666 = test system: NCI-H1666
In short: as §1

NCI-H2087 = test system: NCI-H2087
In short: as §1

NCI-H3122 = test system: NCI-H3122
In short: as §1

NCI-H2009 = test system: NCI-H2009
In short: as §1

BEN = test system: BEN
In short: as §1

NCI-H1395 = test system: NCI-H1395
In short: as §1

201T = test system: 201T
In short: as §1

NCI-H441 = test system: NCI-H441
In short: as §1

C[C@@H]1CN(CC(=O)Nc2ccc3c(c2)Cc2cccc(-c4cc(=O)cc(N5CCOCC5)o4)c2S3)C[C@H](C)O1 + CC(=O)c1c(C)c2cnc(Nc3ccc(N4CCNCC4)cn3)nc2n(C2CCCC2)c1=O [Palbociclib] (partner 0.5 µM)
relative viability (NCI-H23; first compound 0.04 µM): 0.455 | relative viability (NCI-H23; first compound 0.1265 µM): 0.538 | relative viability (NCI-H23; first compound 0.4 µM): 0.436 | relative viability (NCI-H23; first compound 4 µM): 0.495 | relative viability (NCI-H727; first compound 0.04 µM): 0.852 | relative viability (NCI-H727; first compound 0.1265 µM): 0.596 | relative viability (NCI-H727; first compound 0.4 µM): 0.679 | relative viability (NCI-H727; first compound 4 µM): 0.675 | relative viability (NCI-H1993; first compound 0.04 µM): 0.645 | relative viability (NCI-H1993; first compound 0.1265 µM): 0.729 | relative viability (NCI-H1993; first compound 0.4 µM): 0.438 | relative viability (NCI-H1993; first compound 4 µM): 0.662 | relative viability (NCI-H2126; first compound 0.04 µM): 0.384 | relative viability (NCI-H2126; first compound 0.1265 µM): 0.343 | relative viability (NCI-H2126; first compound 0.4 µM): 0.348 | relative viability (NCI-H2126; first compound 4 µM): 0.334 | relative viability (NCI-H647; first compound 0.04 µM): 0.376 | relative viability (NCI-H647; first compound 0.1265 µM): 0.336 | relative viability (NCI-H647; first compound 0.4 µM): 0.444 | relative viability (NCI-H647; first compound 4 µM): 0.273 | relative viability (NCI-H2023; first compound 0.04 µM): 0.426 | relative viability (NCI-H2023; first compound 0.1265 µM): 0.336 | relative viability (NCI-H2023; first compound 0.4 µM): 0.371 | relative viability (NCI-H2023; first compound 4 µM): 0.288 | relative viability (EMC-BAC-2; first compound 0.04 µM): 0.502 | relative viability (EMC-BAC-2; first compound 0.1265 µM): 0.529 | relative viability (EMC-BAC-2; first compound 0.4 µM): 0.502 | relative viability (EMC-BAC-2; first compound 4 µM): 0.545 | relative viability (NCI-H650; first compound 0.04 µM): 0.319 | relative viability (NCI-H650; first compound 0.1265 µM): 0.389 | relative viability (NCI-H650; first compound 0.4 µM): 0.378 | relative viability (NCI-H650; first compound 4 µM): 0.281 | relative viability (HARA; first compound 0.04 µM): 0.234 | relative viability (HARA; first compound 0.1265 µM): 0.186 | relative viability (HARA; first compound 0.4 µM): 0.272 | relative viability (HARA; first compound 4 µM): 0.226 | relative viability (NCI-H2347; first compound 0.04 µM): 0.377 | relative viability (NCI-H2347; first compound 0.1265 µM): 0.493 | relative viability (NCI-H2347; first compound 0.4 µM): 0.459 | relative viability (NCI-H2347; first compound 4 µM): 0.404 | relative viability (HCC-44; first compound 0.04 µM): 0.917 | relative viability (HCC-44; first compound 0.1265 µM): 0.965 | relative viability (HCC-44; first compound 0.4 µM): 0.929 | relative viability (HCC-44; first compound 4 µM): 0.919 | relative viability (LCLC-103H; first compound 0.04 µM): 0.441 | relative viability (LCLC-103H; first compound 0.1265 µM): 0.47 | relative viability (LCLC-103H; first compound 0.4 µM): 0.446 | relative viability (LCLC-103H; first compound 4 µM): 0.47 | relative viability (NCI-H522; first compound 0.04 µM): 0.934 | relative viability (NCI-H522; first compound 0.1265 µM): 0.839 | relative viability (NCI-H522; first compound 0.4 µM): 1.06 | relative viability (NCI-H522; first compound 4 µM): 0.972 | relative viability (LOU-NH91; first compound 0.04 µM): 0.536 | relative viability (LOU-NH91; first compound 0.1265 µM): 0.481 | relative viability (LOU-NH91; first compound 0.4 µM): 0.55 | relative viability (LOU-NH91; first compound 4 µM): 0.509 | relative viability (NCI-H838; first compound 0.04 µM): 0.233 | relative viability (NCI-H838; first compound 0.1265 µM): 0.204 | relative viability (NCI-H838; first compound 0.4 µM): 0.207 | relative viability (NCI-H838; first compound 4 µM): 0.179 | relative viability (NCI-H1666; first compound 0.04 µM): 0.584 | relative viability (NCI-H1666; first compound 0.1265 µM): 0.616 | relative viability (NCI-H1666; first compound 0.4 µM): 0.611 | relative viability (NCI-H1666; first compound 4 µM): 0.662 | relative viability (NCI-H2087; first compound 0.04 µM): 0.213 | relative viability (NCI-H2087; first compound 0.1265 µM): 0.253 | relative viability (NCI-H2087; first compound 0.4 µM): 0.244 | relative viability (NCI-H2087; first compound 4 µM): 0.267 | relative viability (NCI-H3122; first compound 0.04 µM): 0.214 | relative viability (NCI-H3122; first compound 0.1265 µM): 0.201 | relative viability (NCI-H3122; first compound 0.4 µM): 0.176 | relative viability (NCI-H3122; first compound 4 µM): 0.161 | relative viability (NCI-H2009; first compound 0.04 µM): 0.216 | relative viability (NCI-H2009; first compound 0.1265 µM): 0.214 | relative viability (NCI-H2009; first compound 0.4 µM): 0.206 | relative viability (NCI-H2009; first compound 4 µM): 0.206 | relative viability (BEN; first compound 0.04 µM): 0.513 | relative viability (BEN; first compound 0.1265 µM): 0.471 | relative viability (BEN; first compound 0.4 µM): 0.481 | relative viability (BEN; first compound 4 µM): 0.452 | relative viability (NCI-H1395; first compound 0.1265 µM): 0.626 | relative viability (NCI-H1395; first compound 0.4 µM): 0.575 | relative viability (NCI-H1395; first compound 4 µM): 0.595 | relative viability (201T; first compound 0.04 µM): 0.345 | relative viability (201T; first compound 0.1265 µM): 0.35 | relative viability (201T; first compound 0.4 µM): 0.361 | relative viability (201T; first compound 4 µM): 0.336 | relative viability (NCI-H441; first compound 0.04 µM): 0.257 | relative viability (NCI-H441; first compound 0.1265 µM): 0.213 | relative viability (NCI-H441; first compound 0.4 µM): 0.223 | relative viability (NCI-H441; first compound 4 µM): 0.227
